This is an account of results in patent publication US5061794A, “Cephalosporin derivatives, and antibacterial agents” (priority 1986, dated 1991).

One test deals with E. coli CSH(RE45). In words: microbe, parasite or virus in culture. It is filed as cell-based. The settings on record: Escherichia coli, 16 h, read-out: Minimum Inhibitory Concentration (MIC), *E. coli CSH(RE45), lactamase-producing strain; 10^6 CFU/ml. In short, it runs like this:
(§1)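 First, strains were cultured overnight in Mueller Hinton broth. Next, one loopful went onto drug-containing Mueller Hinton agar (10^6 CFU/ml). Finally, after 37° C. incubation for 16 hours, MIC was determined in μg/ml.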

For a further test, the system named is E. coli CSH2 (RK1). Nature of the test: microbe, parasite or virus in culture. Format: cell-based. The settings on record: Escherichia coli, 16 h, read-out: Minimum Inhibitory Concentration (MIC), *E. coli CSH2 (RK1), lactamase-producing strain; 10^6 CFU/ml. The method in brief:
as §1

The test system of a further test is E. cloacae 963. Nature of the test: in vitro antibacterial activity, agar plate dilution method (MIC). It is filed as cell-based. The settings on record: 10^6 CFU/ml. The method in brief:
as §1

The test system of a further test is E. cloacae Nek 39. The description is as above. Format: cell-based. As to conditions: Enterobacter cloacae, NEK39, 16 h, read-out: Minimum Inhibitory Concentration (MIC), *E. cloacae Nek 39, lactamase-producing strain; 10^6 CFU/ml. The method in brief: as §1
In the next test the test system is E. coli GN5482. The description is as above. The settings on record: Escherichia coli, GN5482, 16 h, read-out: Minimum Inhibitory Concentration (MIC). Format: cell-based. The method in brief:
as §1

The subject of a further test is E. coli NIHJ JC2. The test is described as above. It is filed as cell-based. As to conditions: Escherichia coli, NIHJJC2, 16 h, read-out: Minimum Inhibitory Concentration (MIC), E. coli NIHJ JC2, 10^6 CFU/ml, 37° C. In short, it runs like this:
as §1

The next test relates to K. oxytoca GN10650. The description is as above. Format: cell-based. As to conditions: Klebsiella oxytoca, GN10650, 16 h, read-out: Minimum Inhibitory Concentration (MIC), *K. oxytoca GN10650, lactamase-producing strain; 10^6 CFU/ml. In short, it runs like this:
as §1

Another test concerns K. pneumoniae No. 42. The description is as above. It is filed as cell-based. The settings on record: Klebsiella pneumoniae, NO.42, 16 h, read-out: Minimum Inhibitory Concentration (MIC), *K. pneumoniae No. 42, lactamase-producing strain; 10^6 CFU/ml. The method in brief: as §1
Another test relates to K. pneumoniae PCI-602. The test is described as above. The settings on record: Klebsiella pneumoniae, PCI602, 16 h, read-out: Minimum Inhibitory Concentration (MIC), K. pneumoniae PCI-602; 10^6 CFU/ml. It is filed as cell-based. The method in brief: as §1
In the next test the test system is M. morganii GN5407. Described as above. Format: cell-based. The settings on record: Morganella morganii, GN5407, 16 h, read-out: Minimum Inhibitory Concentration (MIC), *M. morganii GN5407, lactamase-producing strain; 10^6 CFU/ml. In short, it runs like this:
as §1

The subject of another test is P. vulgaris HX-19. Described as above. The settings on record: Proteus vulgaris, HX19, 16 h, read-out: Minimum Inhibitory Concentration (MIC). It is filed as cell-based. In short, it runs like this:
as §1

The next test relates to P. vulgaris No. 33. Described as above. Format: cell-based. As to conditions: Proteus vulgaris, NO.33, 16 h, read-out: Minimum Inhibitory Concentration (MIC), *P. vulgaris No. 33, lactamase-producing strain; 10^6 CFU/ml. The method in brief: as §1
A further test deals with S. aureus 209P NIHJ-JC1. Described as above. As to conditions: Staphylococcus aureus, 16 h, read-out: Minimum Inhibitory Concentration (MIC). It is filed as cell-based. The method in brief:
as §1

The test system of another test is S. marcescens IAM 1184. The test is described as above. As to conditions: Serratia marcescens, IAM1184, 16 h, S. marcescens IAM 1184; 10^6 CFU/ml; read-out: Minimum Inhibitory Concentration (MIC). Format: cell-based. The method in brief: as §1
For a further test, the system named is S. marcescens No. 16-2. Described as above. Format: cell-based. The settings on record: Serratia marcescens, NO.162, 16 h, read-out: Minimum Inhibitory Concentration (MIC), *S. marcescens No. 16-2, lactamase-producing strain; 10^6 CFU/ml. In short, it runs like this:
as §1

The test system of another test is Ps. aeruginosa AK 109. The description is as above. It is filed as cell-based, Pseudomonas aeruginosa. The settings on record: Pseudomonas aeruginosa, AK109, 16 h, read-out: Minimum Inhibitory Concentration (MIC). In short, it runs like this:
as §1

The subject of another test is Ps. aeruginosa AKR17. The test is described as above. It is filed as cell-based, Pseudomonas aeruginosa. As to conditions: Pseudomonas aeruginosa, AKR17, 16 h, read-out: Minimum Inhibitory Concentration (MIC), Ps. aeruginosa AKR17; 10^6 CFU/ml. In short, it runs like this: as §1
A further test relates to Ps. aeruginosa IF03445. The description is as above. It is filed as cell-based, Pseudomonas aeruginosa. As to conditions: Pseudomonas aeruginosa, IF03445, 16 h, read-out: Minimum Inhibitory Concentration (MIC), Ps. aeruginosa IF03445; 10^6 CFU/ml. In short, it runs like this:
as §1

The subject of the next test is Ps. cepacia 23. The description is as above. It is filed as cell-based, Pseudomonas cepacia. The settings on record: Burkholderia cepacia, 16 h; Ps. cepacia 23; 10^6 CFU/ml; read-out: Minimum Inhibitory Concentration (MIC). The method in brief: as §1
For a further test, the system named is A. calcoaceticus No. 4. Described as above. The settings on record: Acinetobacter calcoaceticus, NO.4, 16 h, A. calcoaceticus No. 4; 10^6 CFU/ml; read-out: Minimum Inhibitory Concentration (MIC). Format: cell-based, Acinetobacter calcoaceticus. The method in brief: as §1
Test [1] relates to Enterobacter cloacae GN 5797. In words: β-lactamase inducibility. It is filed as cell-based. As to conditions: antibiotic at 50, 10 and 1 μg/ml; cephaloridine as substrate. The procedure: The assay method for induction of β-lactamase by β-latam antibiotics was as follows:
The test organism, Enterobacter cloacae GN 5797, was grown overnight in Mueller Hinton broth (Dlfco Laboratories, Detroit, Mich.) at 37° C. The culture was diluted 10-fold into 20 ml of the flesh medium and incubated with shaking at 37° C. After 2 hours of incubation, antibiotics were added to final concentrations of 50 μg/ml, 10 μg/ml and 1 μg/ml, and the incubation was continued. At 1 hour intervals after the addition of antibiotic, 3 ml of sample was taken, and immediately added with 0.1 ml of 50 mM sodium azide. The cells were harvested and washed with 50 mM phosphate buffer (ph 7.0). The cells were suspended in 5 ml of 50 mM phosphate buffer and disrupted with a sonicater in an ice-water bath. The broken cells were centrifuged at 16,500 G for 40 minutes at 4° C., and the resulting supernatant fluid was used as the crude enzyme. β-Lactamase activity was determined by a sopectrophotometric method (Antmicrob. Agents Chemother. 17, 355-358, 1980) with cephaloridine as substrate. The concentration of protein was determined by the method of Lowry (J. Biol. Chem. 193, 265-275, 1951). […] As a representative example, the compound of EXAMPLE 50 was administered to mice by means of subcutaneous administration, and the concentration in the blood was measured.

Where two headings read alike, the source gives them in different places.

Regarding `CC(C)(ON=C(C(=O)NC1C(=O)N2C(C(=O)O)=C(CSc3nc(-c4ccc(O)c(O)c4)cs3)CSC12)c1csc(N)n1)C(=O)O` (stereo not drawn) [Ex. 44, disodium 7β-[2-(2-aminothiazol-4-yl)-2-(1-carboxylate-1-methylethoxyimino)acetamido]-3-[4-(3,4-dihydroxyphenyl)thiazol-2-yl]thiomethyl-3-cephem-4-carboxylate], the MIC was 0.0125 µg/mL with E. coli CSH(RE45); 0.0125 µg/mL with E. coli CSH2 (RK1); 0.1 µg/mL in the test with E. cloacae 963 (Enterobacter cloacae, 16 h, E. cloacae 963, read-out: Minimum Inhibitory Concentration (MIC)); 0.1 µg/mL in the test on E. cloacae Nek 39; 0.39 µg/mL in the test on E. coli GN5482; 0.2 µg/mL in the test on E. coli NIHJ JC2. The MIC was 0.025 µg/mL in the test on K. oxytoca GN10650; 0.1 µg/mL in the test on K. pneumoniae No. 42; less than 0.006 µg/mL in the test with K. pneumoniae PCI-602; 0.05 µg/mL in the test with M. morganii GN5407; 0.0125 µg/mL with P. vulgaris HX-19; 0.025 µg/mL with P. vulgaris No. 33. The MIC in the test on S. aureus 209P NIHJ-JC1 was 12.5 µg/mL; in the test on S. marcescens IAM 1184, 0.05 µg/mL; in the test on S. marcescens No. 16-2 it was 1.56 µg/mL; with Ps. aeruginosa AK 109, 0.39 µg/mL; in the test with Ps. aeruginosa AKR17, 1.56 µg/mL; with Ps. aeruginosa IF03445, 0.39 µg/mL. Also, the figures for the MIC with Ps. cepacia 23 and in the test with A. calcoaceticus No. 4 were less than 0.006 µg/mL and 0.2 µg/mL, respectively. Moreover, the β-lactamase inducibility result in test [1] is “no substantial β-lactamase-inducing activity was observed”.

As for `CC(C)(O/N=C(\C(=O)N[C@@H]1C(=O)N2C(C(=O)O)=C(CSc3ncc(-c4ccc(O)c(O)c4)o3)CS[C@H]12)c1csc(N)n1)C(=O)O` [Ex. 64, disodium 7β-[2-(2-aminothiazol-4-yl)-2-(1-carboxylate-1-methylethoxyimino)acetamido]-3-[5-(3,4-dihydroxyphenyl)oxazol-2-yl]thiomethyl-3-cephem-4-carboxylate], the MIC was found to be 0.025 µg/mL in the test on E. coli CSH(RE45); 0.0125 µg/mL in the test with E. coli CSH2 (RK1); 0.39 µg/mL in the test on E. cloacae 963 (Enterobacter cloacae, 963, 16 h, read-out: Minimum Inhibitory Concentration (MIC), E. cloacae 963); 0.2 µg/mL in the test with E. cloacae Nek 39; 3.12 µg/mL with E. coli GN5482; 0.78 µg/mL in the test on E. coli NIHJ JC2. Besides, the MIC in the test on K. oxytoca GN10650 turned out to be 0.1 µg/mL; with K. pneumoniae No. 42, 0.05 µg/mL; in the test with K. pneumoniae PCI-602, 0.0125 µg/mL; in the test on M. morganii GN5407, 0.1 µg/mL; with P. vulgaris HX-19 it was 0.0125 µg/mL; in the test on P. vulgaris No. 33 it was 0.025 µg/mL. Besides, the MIC was determined as 25 µg/mL in the test with S. aureus 209P NIHJ-JC1 (S. aureus 209P NIHJ-JC1, 10^6 CFU/ml, 37° C., 16 hours); 0.1 µg/mL in the test with S. marcescens IAM 1184; 1.56 µg/mL with S. marcescens No. 16-2; 0.39 µg/mL in the test on Ps. aeruginosa AK 109; 1.56 µg/mL in the test on Ps. aeruginosa AKR17; 0.78 µg/mL in the test with Ps. aeruginosa IF03445. Further, the figures for the MIC with Ps. cepacia 23 and in the test on A. calcoaceticus No. 4 were less than 0.006 µg/mL and 0.2 µg/mL, respectively. The β-lactamase inducibility result in test [1] is recorded as “no substantial β-lactamase-inducing activity was observed”.
